Source: US12577229B2, “Substituted {5-methoxy-6-[(5-methoxypyridin-2-yl)methoxy]pyridin-3-yl} methyl compounds as CSF-1R inhibitors” (Eli Lilly and Company, priority 2020, dated 2026)

What was measured:
[1] = molecular target: T1, PDGFRB (Homo sapiens, UniProt P09619); assay: DiscoverX KINOMEscan kinase competition binding assay, PDGFRB
T1 construct: purchased DiscoverX Corporation (Fremont, CA), contract assay
Method: (§1) DiscoverX® KINOMEscan™ In Vitro Kinase Competition Binding Assay
(§2) Compound activity (% binding) is monitored by measuring the amount of kinase captured in test versus control samples by using a qPCR method that detects the associated DNA label. The binding activity is converted to % inhibition and an IC50 value is determined for CSF-1R fold-selectivity assessment.
(§3) Assays to monitor binding to a 468-kinase panel are conducted at DiscoverX® Corporation (Fremont, CA). Test compound is provided as a 10 mM stock in 100% DMSO and evaluated at […] final concentrations. Kinases are tagged with DNA for qPCR detection. […] The liganded beads are blocked with excess biotin and washed with blocking buffer (Pierce SeaBlock, 1% BSA, 0.05% Tween 20 and 1 mM DTT) to remove unbound ligand and to reduce nonspecific binding. […] Test compound is prepared as a 40×stock in 100% DMSO and directly diluted into the assay. All reactions are performed in polypropylene 384-well plates in a final volume of 0.02 mL. […] The kinase concentration in the eluates is measured by qPCR. […]
(§4) The percent inhibition values, and the 3-point concentration response data are subsequently determined and analyzed with NGR software, and non-standard IC50 values are calculated from the resulting curve fit. […]

[2] = molecular target: T2, KIT V559D V654A (Homo sapiens, UniProt P10721, V559D/V654A); assay: DiscoverX KINOMEscan kinase competition binding assay, KIT V559D V654A; conditions: 2 μM compound concentration
T2 construct: purchased DiscoverX Corporation (Fremont, CA), contract assay
Method: as §1, §2, §3, §4

[3] = molecular target: KIT (Homo sapiens, UniProt P10721); assay: biochemical
Method: as §1, §2, §3, §4

[4] = molecular target: T3, KIT V559D (Homo sapiens, UniProt P10721, V559D); assay: DiscoverX KINOMEscan kinase competition binding assay, KIT V559D; conditions: 2 μM compound concentration
T3 construct: purchased DiscoverX Corporation (Fremont, CA), contract assay
Method: as §1, §2, §3, §4

[5] = molecular target: T4, KIT L576P (Homo sapiens, UniProt P10721, L576P); assay: DiscoverX KINOMEscan kinase competition binding assay, KIT L576P; conditions: 2 μM compound concentration
T4 construct: purchased DiscoverX Corporation (Fremont, CA), contract assay
Method: as §1, §2, §3, §4

[6] = system: 468-kinase panel; assay: DiscoverX KINOMEscan kinase competition binding assay, whole panel; parameters: species or system human; conditions: of 468 protein kinases, 2 μM compound concentration
Method: as §1, §2
Assays to monitor binding to a 468-kinase panel are conducted at DiscoverX® Corporation (Fremont, CA). […] Kinases are tagged with DNA for qPCR detection. […] The liganded beads are blocked with excess biotin and washed with blocking buffer (Pierce SeaBlock, 1% BSA, 0.05% Tween 20 and 1 mM DTT) to remove unbound ligand and to reduce nonspecific binding. […] Test compound is prepared as a 40×stock in 100% DMSO and directly diluted into the assay. All reactions are performed in polypropylene 384-well plates in a final volume of 0.02 mL. […] The kinase concentration in the eluates is measured by qPCR. The results for primary screen binding interactions are reported as ‘% Ctrl’, where lower numbers indicate stronger hits in the matrix.
Percent of control (% Ctrl) calculation: […]
as §4

[7] = molecular target: T5, human PDGFRβ (Homo sapiens, UniProt P09619); assay: DiscoverX PathHunter RTK cell based functional assay, PDGFRβ; conditions: PDGFRβ U2OS cells, 3 nM PDGF-BB agonist, n=4
T5 construct: enzyme fragment for Enzyme Fragment Complementation (β-galactosidase fragment); host or cells: U2OS
Method: DiscoverX® PathHunter Receptor Tyrosine Kinase (RTK) Cell Based Functional Assay
For in vitro PDGFRβ (Accession NM_002609, Part No. 93-0493C3) and c-Kit (Accession NM_000222, Part No. 93-0853C3) cellular assays, the test compounds are prepared in DMSO to make up a 10 mM stock solution. The stock solution is serially diluted two-fold in DMSO to obtain a twenty-point curve with final compound concentrations ranging from 20.0 μM to 0.019 nM.
DiscoverX® PathHunter Receptor Tyrosine Kinase (RTK) cell based functional assays are utilized to profile compounds using Enzyme Fragment Complementation technology with human PDGFRβ U2OS cells and human c-Kit U2OS cells. Cells are continuously cultured from cell passage 5 up to cell passage 30 in AssayComplete™ Cell Culture Kit-103 (DiscoverX®, 92-3103G) media containing 500 μg/mL G418 and 250 μg/mL hygromycin. PDGFRβ or c-Kit cells (27 μL) in media (DiscoverX®, 93-0563R16B) are seeded at 1.5×10^4 cells/well into all wells of a Corning 384 poly-d-lysine coated white plate. The cell plates are then incubated overnight at 37° C., 5.0% CO2. Compound serial dilutions are then added to rows A-P, columns 3-22. DMSO and inhibitor controls are added to rows A-P, columns 1-2 and 23-24, respectively. Cell plates with compound or controls are incubated for 1 hour at 37° C., 5.0% CO2. […] After 1 hour, cell plates are read on a chemiluminescence capable plate reader. […]

[8] = system: 5xFAD model of Alzheimer's disease; conditions: cited from earlier work
[9] = system: P301S mouse tauopathy model; conditions: cited from earlier work

Sequence of KIT (P10721 26-976): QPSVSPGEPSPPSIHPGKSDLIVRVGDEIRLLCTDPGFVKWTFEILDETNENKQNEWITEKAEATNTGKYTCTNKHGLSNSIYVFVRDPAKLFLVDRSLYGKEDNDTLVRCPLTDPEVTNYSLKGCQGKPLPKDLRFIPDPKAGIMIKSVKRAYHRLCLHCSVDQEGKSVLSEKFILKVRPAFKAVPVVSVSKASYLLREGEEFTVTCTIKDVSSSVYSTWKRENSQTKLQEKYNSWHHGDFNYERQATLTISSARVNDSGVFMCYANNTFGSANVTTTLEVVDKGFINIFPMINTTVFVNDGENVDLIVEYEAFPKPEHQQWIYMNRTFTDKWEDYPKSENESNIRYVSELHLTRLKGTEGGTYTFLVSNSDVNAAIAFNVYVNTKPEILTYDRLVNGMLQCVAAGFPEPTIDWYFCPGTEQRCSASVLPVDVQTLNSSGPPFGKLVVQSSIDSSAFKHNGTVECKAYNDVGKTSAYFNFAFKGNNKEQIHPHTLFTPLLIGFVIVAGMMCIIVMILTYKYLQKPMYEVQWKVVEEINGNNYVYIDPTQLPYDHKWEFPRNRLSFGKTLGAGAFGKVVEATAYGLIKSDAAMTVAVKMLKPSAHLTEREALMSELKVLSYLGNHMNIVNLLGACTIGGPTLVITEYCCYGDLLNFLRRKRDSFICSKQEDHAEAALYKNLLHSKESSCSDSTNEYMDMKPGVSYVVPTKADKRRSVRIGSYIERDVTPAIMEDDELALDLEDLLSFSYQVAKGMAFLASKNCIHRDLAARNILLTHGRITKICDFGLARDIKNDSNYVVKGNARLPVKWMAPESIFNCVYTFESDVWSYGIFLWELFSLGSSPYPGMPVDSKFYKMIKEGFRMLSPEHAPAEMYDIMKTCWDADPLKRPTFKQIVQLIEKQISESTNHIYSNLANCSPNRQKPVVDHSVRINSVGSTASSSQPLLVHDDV
T1 sequence (P09619 33-1106): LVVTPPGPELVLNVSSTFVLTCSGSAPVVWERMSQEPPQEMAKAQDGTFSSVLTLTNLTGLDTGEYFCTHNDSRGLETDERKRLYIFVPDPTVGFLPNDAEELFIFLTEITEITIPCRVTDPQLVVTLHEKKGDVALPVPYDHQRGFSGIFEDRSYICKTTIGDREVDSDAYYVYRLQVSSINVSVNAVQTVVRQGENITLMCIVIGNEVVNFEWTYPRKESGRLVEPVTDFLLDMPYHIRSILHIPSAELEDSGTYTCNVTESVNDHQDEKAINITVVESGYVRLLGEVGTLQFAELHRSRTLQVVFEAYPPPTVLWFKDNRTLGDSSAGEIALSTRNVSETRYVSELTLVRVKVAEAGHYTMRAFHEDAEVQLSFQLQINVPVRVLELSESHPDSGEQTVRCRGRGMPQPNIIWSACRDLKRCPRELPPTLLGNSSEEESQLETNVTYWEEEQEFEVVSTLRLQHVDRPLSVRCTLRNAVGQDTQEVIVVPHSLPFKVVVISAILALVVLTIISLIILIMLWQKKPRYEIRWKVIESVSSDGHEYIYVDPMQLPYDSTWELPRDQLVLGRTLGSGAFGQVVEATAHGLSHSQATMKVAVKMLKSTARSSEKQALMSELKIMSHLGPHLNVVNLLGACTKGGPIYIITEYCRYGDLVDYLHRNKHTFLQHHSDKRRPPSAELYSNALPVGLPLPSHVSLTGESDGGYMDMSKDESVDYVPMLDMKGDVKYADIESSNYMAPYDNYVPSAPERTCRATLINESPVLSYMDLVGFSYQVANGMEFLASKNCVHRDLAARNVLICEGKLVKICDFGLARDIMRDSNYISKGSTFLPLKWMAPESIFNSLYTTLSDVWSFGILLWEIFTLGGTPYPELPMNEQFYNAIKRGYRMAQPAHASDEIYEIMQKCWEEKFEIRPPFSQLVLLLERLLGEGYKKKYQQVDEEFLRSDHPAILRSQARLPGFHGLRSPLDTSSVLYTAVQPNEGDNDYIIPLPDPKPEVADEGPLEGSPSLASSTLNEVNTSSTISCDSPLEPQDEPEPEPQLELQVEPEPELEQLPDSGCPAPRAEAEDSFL
T5 sequence (P09619 33-1106): as above
T2 sequence (P10721 26-976 V559D/V654A): as the sequence (P10721 26-976) above, with V534D, V629A counted along it
T3 sequence (P10721 26-976 V559D): as the sequence (P10721 26-976) above, with V534D counted along it
T4 sequence (P10721 26-976 L576P): as the sequence (P10721 26-976) above, with L551P counted along it

Compound `COc1ccc(COc2ncc(Cc3ccnc(-c4cnn(C)c4)n3)cc2OC)nc1` [Example 1, 4-({5-Methoxy-6-[(5-methoxypyridin-2-yl)methoxy]pyridin-3-yl}methyl)-2-(1-methyl-1H-pyrazol-4-yl)pyrimidine] has an inhibition at 2 µM [1] of 90.8%, an inhibition at 2 µM [2] of 84% and an inhibition at 2 µM [3] of 99.4%. For the same compound, the inhibition at 2 µM [4] was 99.5%, the inhibition at 2 µM [5] was 96.4% and the “number of kinases showing less than 35% control activity (or >65% inhibition)” value [6] was 3 kinases. For the same compound, the IC50 [7] was greater than 20 µM.

For `FC(F)(F)c1ccc(CNc2ccc(Cc3c[nH]c4ncc(Cl)cc34)cn2)cn1` [PLX3397], the “effect on amyloid pathology” value [8] is listed as “Reductions in intraneuronal amyloid, neuritic plaque formation and pre-fibrillar and fibrillar oligomers” and the “effect on cognitive function” value [8] is listed as “improvements in cognitive function”.

For `CC1(C)CC=C(c2nc(C3CC(C)(C)OC(C)(C)C3)ccc2NC(=O)c2nc(C#N)c[nH]2)CC1` [JNJ-40346527], the “effect on tau phosphorylation and aggregation” value [9] is listed as “inhibit tau phosphorylation and aggregation”.
